From patent publication US12447153B2, “HER2 mutation inhibitors” (Array BioPharma Inc., priority 2021, dated 2025) come the findings set out here.

The target of assay [1] is ErbB2 with Exon 20 YVMA insertion (HER2-YVMA) (Homo sapiens (Human), UniProt P04626, INS775YVMA). In words: Cellular Phosphorylation Assay, Assay 4 (constitutive ErbB2 phosphorylation, NIH 3T3 cells). In kind it is cell-based. Particulars: cellular ErbB2 YVMA phosphorylation.
The target in the next assay is ErbB2 WT (Homo sapiens (Human), UniProt P04626). In words: ErbB Enzyme Assay (HTRF KinEASE-TK), Assay 2. In kind it is biochemical. Particulars: ErbB2 WT enzyme assay.
Chain of ErbB2 WT (P04626 23-1255): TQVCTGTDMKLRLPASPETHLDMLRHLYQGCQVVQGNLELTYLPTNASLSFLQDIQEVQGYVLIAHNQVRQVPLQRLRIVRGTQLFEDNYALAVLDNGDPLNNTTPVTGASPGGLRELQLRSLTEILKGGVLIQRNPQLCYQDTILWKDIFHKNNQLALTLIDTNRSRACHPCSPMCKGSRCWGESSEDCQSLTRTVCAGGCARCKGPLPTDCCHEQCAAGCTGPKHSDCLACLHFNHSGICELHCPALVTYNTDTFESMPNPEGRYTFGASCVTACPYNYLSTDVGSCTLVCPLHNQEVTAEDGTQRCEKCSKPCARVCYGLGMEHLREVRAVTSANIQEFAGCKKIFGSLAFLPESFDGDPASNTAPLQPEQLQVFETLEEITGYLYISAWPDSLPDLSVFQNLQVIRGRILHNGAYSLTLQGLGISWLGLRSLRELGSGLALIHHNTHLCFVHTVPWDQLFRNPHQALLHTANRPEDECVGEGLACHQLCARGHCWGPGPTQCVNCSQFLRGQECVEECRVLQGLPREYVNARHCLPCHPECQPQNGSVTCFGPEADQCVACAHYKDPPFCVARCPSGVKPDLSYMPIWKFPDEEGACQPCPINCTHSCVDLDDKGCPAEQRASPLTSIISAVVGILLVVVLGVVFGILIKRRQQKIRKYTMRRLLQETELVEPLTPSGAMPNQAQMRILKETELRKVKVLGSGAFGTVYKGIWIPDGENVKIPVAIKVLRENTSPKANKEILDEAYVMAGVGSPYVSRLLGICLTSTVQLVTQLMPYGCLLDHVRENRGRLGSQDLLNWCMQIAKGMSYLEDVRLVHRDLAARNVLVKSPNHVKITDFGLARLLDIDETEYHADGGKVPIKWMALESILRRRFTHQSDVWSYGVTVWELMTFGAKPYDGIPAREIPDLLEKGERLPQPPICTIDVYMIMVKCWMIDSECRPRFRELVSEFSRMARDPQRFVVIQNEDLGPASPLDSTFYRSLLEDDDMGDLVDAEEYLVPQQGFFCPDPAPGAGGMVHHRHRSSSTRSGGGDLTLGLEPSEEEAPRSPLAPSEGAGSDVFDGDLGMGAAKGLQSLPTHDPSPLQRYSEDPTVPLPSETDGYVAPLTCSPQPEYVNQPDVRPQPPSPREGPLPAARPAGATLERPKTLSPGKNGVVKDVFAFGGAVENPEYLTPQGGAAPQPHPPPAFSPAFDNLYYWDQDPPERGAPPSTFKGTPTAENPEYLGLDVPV
The next assay has as its target EGFR (Homo sapiens (Human), UniProt P00533). In words: ErbB Enzyme Assay (HTRF KinEASE-TK), Assay 3. In kind it is biochemical. Particulars: EGFR enzyme assay.
The target in the next assay is EGFR wild type (EGFR WT) (Homo sapiens (Human), UniProt P00533). In words: Cellular Phosphorylation Assay, Assay 5 (EGF-stimulated EGFR phosphorylation, NIH 3T3 cells). To be noted: cellular EGFR WT phosphorylation, EGF-stimulated. In kind it is cell-based.
Chain of EGFR wild type (EGFR WT) (P00533 25-1210): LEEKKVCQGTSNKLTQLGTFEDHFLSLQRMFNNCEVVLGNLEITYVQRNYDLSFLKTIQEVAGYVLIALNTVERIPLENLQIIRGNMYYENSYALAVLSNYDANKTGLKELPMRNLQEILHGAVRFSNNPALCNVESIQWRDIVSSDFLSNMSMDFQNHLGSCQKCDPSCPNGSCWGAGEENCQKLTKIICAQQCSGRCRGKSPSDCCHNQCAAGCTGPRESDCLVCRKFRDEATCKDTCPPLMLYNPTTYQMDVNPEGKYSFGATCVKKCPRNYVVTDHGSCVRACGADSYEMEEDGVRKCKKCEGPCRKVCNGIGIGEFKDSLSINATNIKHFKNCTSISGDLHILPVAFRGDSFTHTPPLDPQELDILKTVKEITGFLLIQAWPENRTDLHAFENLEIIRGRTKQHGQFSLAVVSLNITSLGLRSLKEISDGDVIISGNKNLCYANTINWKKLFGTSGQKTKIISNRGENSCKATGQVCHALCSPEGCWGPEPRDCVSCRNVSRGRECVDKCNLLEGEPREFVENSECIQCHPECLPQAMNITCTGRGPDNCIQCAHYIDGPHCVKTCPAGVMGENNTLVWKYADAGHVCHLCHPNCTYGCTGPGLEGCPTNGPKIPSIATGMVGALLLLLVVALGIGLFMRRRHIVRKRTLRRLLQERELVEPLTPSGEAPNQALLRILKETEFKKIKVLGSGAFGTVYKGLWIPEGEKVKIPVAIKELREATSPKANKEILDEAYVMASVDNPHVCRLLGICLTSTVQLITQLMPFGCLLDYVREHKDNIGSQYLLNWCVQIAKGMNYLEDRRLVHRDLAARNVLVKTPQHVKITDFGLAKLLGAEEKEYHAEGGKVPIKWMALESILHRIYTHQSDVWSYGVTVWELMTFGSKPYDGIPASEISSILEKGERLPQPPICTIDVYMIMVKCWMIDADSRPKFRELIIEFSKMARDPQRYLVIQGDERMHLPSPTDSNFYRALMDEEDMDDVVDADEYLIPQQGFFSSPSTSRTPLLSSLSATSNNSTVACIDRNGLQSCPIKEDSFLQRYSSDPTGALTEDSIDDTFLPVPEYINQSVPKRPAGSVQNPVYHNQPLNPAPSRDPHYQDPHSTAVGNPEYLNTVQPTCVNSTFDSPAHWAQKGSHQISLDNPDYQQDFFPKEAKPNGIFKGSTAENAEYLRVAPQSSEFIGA

Chain of ErbB2 with Exon 20 YVMA insertion (HER2-YVMA) (P04626 other isoform, or with tags, fused parts or gaps ins YVMA behind 775): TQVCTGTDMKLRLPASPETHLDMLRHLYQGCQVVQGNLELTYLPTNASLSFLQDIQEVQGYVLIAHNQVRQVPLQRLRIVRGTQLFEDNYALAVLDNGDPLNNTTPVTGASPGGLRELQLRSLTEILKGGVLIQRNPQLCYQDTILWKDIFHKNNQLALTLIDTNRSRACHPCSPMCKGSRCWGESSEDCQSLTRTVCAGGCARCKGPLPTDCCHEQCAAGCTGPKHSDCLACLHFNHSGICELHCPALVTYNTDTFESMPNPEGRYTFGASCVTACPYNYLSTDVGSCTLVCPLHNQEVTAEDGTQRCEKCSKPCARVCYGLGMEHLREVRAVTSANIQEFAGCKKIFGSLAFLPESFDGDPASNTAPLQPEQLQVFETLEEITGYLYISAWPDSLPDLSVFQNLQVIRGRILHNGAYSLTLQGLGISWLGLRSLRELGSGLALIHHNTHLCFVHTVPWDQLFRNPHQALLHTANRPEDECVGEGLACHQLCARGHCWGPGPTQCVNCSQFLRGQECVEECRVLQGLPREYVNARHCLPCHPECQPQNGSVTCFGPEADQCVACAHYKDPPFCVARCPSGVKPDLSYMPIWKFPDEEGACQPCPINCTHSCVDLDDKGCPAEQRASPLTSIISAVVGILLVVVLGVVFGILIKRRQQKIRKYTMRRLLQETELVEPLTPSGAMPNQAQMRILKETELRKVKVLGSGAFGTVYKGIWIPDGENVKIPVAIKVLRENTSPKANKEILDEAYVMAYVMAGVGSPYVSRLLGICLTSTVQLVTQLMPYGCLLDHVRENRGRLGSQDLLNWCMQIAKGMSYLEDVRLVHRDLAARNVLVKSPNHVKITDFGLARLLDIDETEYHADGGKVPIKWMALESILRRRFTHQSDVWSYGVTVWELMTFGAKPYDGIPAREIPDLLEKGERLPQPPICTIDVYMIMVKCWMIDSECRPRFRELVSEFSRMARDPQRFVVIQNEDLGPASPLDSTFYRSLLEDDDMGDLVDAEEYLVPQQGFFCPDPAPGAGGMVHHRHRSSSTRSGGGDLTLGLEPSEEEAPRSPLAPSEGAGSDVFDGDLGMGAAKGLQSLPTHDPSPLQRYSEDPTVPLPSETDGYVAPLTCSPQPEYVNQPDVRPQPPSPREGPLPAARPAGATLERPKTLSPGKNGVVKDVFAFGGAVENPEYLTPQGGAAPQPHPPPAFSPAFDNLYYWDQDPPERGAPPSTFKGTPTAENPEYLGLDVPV
Chain of EGFR (P00533 25-1210): as the sequence (P00533 25-1210) above

On to `C=CC(=O)N1C[C@@H]2CC[C@H]1CN2c1ccc2ncnc(Nc3cc(Cl)c(Oc4ccn5ncnc5c4)cc3F)c2n1` [Example 321], for which the IC50 in assay [1] came to 3.8 nM; against ErbB2 WT it was 4.6 nM; against EGFR, 86.4 nM; against EGFR wild type (EGFR WT), 124 nM.
As for `C=CC(=O)N1C[C@@H]2CC[C@H]1CN2c1ccc2ncnc(Nc3cc(C)c(Oc4cnc5c(c4)ncn5C)cc3F)c2n1` [Example 324], the IC50 amounted to 10.2 nM in assay [1], 50.8 nM at ErbB2 WT, 419 nM on EGFR and 276 nM against EGFR wild type (EGFR WT).
Consider `C=CC(=O)N1C[C@H]2CC[C@@H]1CN2c1ccc2ncnc(Nc3cc(Cl)c(Oc4ccn5ncnc5c4)cc3F)c2n1` [Example 330], for which the IC50 in assay [1] is 241 nM; at ErbB2 WT, 239 nM; against EGFR it was no less than 10000 nM; against EGFR wild type (EGFR WT), no less than 5000 nM.
In the same order, the values of `C=CC(=O)N1C[C@@H]2CC[C@H]1CN2c1ccc2ncnc(Nc3ccc(Oc4ccn5ncnc5c4)c(C)c3F)c2n1` [Example 331] are 3.2 nM, 4.7 nM, 48.8 nM and 79 nM.
Taken in the same sequence, the figures for `C=CC(=O)N1CC2CC(C1)N2c1ccc2ncnc(Nc3cc(C)c(Oc4ccn5ncnc5c4)cc3F)c2n1` [Example 336] were 50.5 nM, 203 nM, 5700 nM and 4880 nM.
For `C=CC(=O)N1CCN(c2ccc3ncnc(Nc4ccc(Oc5ccn6ncnc6c5)c(C)c4F)c3n2)CC12CC2` [Example 338], the IC50 in assay [1] was found to be 4.9 nM; against ErbB2 WT it was 7 nM; at EGFR it was 108 nM; at EGFR wild type (EGFR WT) it was 68.9 nM.
As to `C=CC(=O)N1CCN(c2ccc3ncnc(Nc4ccc(Oc5ccc6c(c5)ncn6C)c(C)c4F)c3n2)CC12CC2` [Example 339], the concentration for half-maximal inhibition (IC50) in assay [1] is 16.4 nM; against ErbB2 WT, 14.1 nM; at EGFR, no less than 10000 nM; against EGFR wild type (EGFR WT) it was 361 nM.
Regarding `C=C(C)C(=O)N1CCN(c2ccc3ncnc(Nc4ccc(Oc5ccn6ncnc6c5)c(C)c4F)c3n2)CC1(C)C` [Example 341], the 50% inhibitory concentration (IC50) in assay [1] was 529 nM; at ErbB2 WT it was 113 nM; against EGFR it was no less than 10000 nM; on EGFR wild type (EGFR WT) it was no less than 5000 nM.
Taken in the same sequence, the figures for `C=CC(=O)N1CCC12CN(c1ccc3ncnc(Nc4cc(Cl)c(Oc5ccn6ncnc6c5)cc4F)c3n1)C2` [Example 343] were 9.4 nM, 44.6 nM, 841 nM and 372 nM.
`C=CC(=O)N1CCN(c2ccc3ncnc(Nc4ccc(Oc5ccn6ncnc6c5)c(Cl)c4F)c3n2)C[C@H]1COC` [Example 344]: the IC50 came to 3.4 nM in assay [1], 7.7 nM against ErbB2 WT, 88.4 nM against EGFR and 46.8 nM against EGFR wild type (EGFR WT).
On to `C=CC(=O)N1CCN(c2ccc3ncnc(Nc4cc(Cl)c(Oc5ccn6ncnc6c5)cc4F)c3n2)C[C@H]1COC` [Example 345], for which the half-maximal inhibitory concentration (IC50) is 5.1 nM in assay [1], 9.4 nM at ErbB2 WT, 174 nM against EGFR and 115 nM at EGFR wild type (EGFR WT).
Turning to `C=CC(=O)N1CCN(c2ccc3ncnc(Nc4cc(C)c(Oc5ccn6ncnc6c5)cc4F)c3n2)C[C@H]1COC` [Example 347], the IC50 was found to be 8.2 nM in assay [1], 38 nM against ErbB2 WT, 772 nM against EGFR and 380 nM against EGFR wild type (EGFR WT).
On to `C=CC(=O)N1CCN(c2ccc3ncnc(Nc4ccc(Oc5ccn6ncnc6c5)c(Cl)c4F)c3n2)C[C@@H]1COC` [Example 348], for which the 50% inhibitory concentration (IC50) worked out at 8.2 nM in assay [1], 12.1 nM against ErbB2 WT, 414 nM against EGFR and 348 nM against EGFR wild type (EGFR WT).
As to `C=CC(=O)N(C)[C@@H]1CCN(c2ccc3ncnc(Nc4ccc(Oc5ccn6ncnc6c5)c(C)c4F)c3n2)C1` [Example 349], the IC50 in assay [1] is 35.8 nM; at ErbB2 WT, 29.3 nM; on EGFR, 2680 nM; against EGFR wild type (EGFR WT) it was no less than 5000 nM.
On to `C=CC(=O)N(C)[C@@H]1CCN(c2ccc3ncnc(Nc4cc(C)c(Oc5ccn6ncnc6c5)cc4F)c3n2)C1` [Example 350], for which the half-inhibitory concentration (IC50) in assay [1] is 96 nM; against ErbB2 WT it was 69.4 nM; at EGFR it was no less than 10000 nM; against EGFR wild type (EGFR WT) it was no less than 5000 nM.
On to `C=CC(=O)N(C)[C@H]1CCN(c2ccc3ncnc(Nc4ccc(Oc5ccn6ncnc6c5)c(C)c4F)c3n2)C1` [Example 352], for which the IC50 in assay [1] is 11.5 nM; against ErbB2 WT it was 25.4 nM; against EGFR, 2910 nM; on EGFR wild type (EGFR WT), no less than 5000 nM.
With `C=CC(=O)N1CCC12CN(c1ccc3ncnc(Nc4ccc(Oc5ccn6ncnc6c5)c(Cl)c4F)c3n1)C2` [Example 360], the IC50 in assay [1] came out at 4.1 nM; against ErbB2 WT, 8.8 nM; against EGFR it was 121 nM; against EGFR wild type (EGFR WT), 178 nM.
Take `C=CC(=O)N1CCN(c2ccc3ncnc(Nc4ccc(Oc5ccn6ncnc6c5)c(Cl)c4F)c3n2)CC12CC2` [Example 363]: the IC50 was found to be 3.2 nM in assay [1], 1.8 nM against ErbB2 WT, 22.3 nM at EGFR and 35.8 nM on EGFR wild type (EGFR WT).
Taken in the same sequence, the figures for `C=C(C)C(=O)N1CCN(c2ccc3ncnc(Nc4ccc(Oc5ccn6ncnc6c5)c(C)c4F)c3n2)CC1` [Example 364] were 556 nM, 127 nM, no less than 10000 nM and no less than 5000 nM.
Regarding `C=CC(=O)N1CCN(c2ccc3ncnc(Nc4cc(Cl)c(Oc5ccn6ncnc6c5)cc4F)c3n2)CC1C(F)F` (stereo not shown) [Example 365], the IC50 in assay [1] turned out to be 16.5 nM; against ErbB2 WT, 17.6 nM; on EGFR, 465 nM; at EGFR wild type (EGFR WT) it was 238 nM.
`C=CC(=O)N1CCN(c2ccc3ncnc(Nc4ccc(Oc5ccn6ncnc6c5)c(Cl)c4F)c3n2)CC1C(F)F` (stereo not shown) [Example 366]: the IC50 in assay [1] amounted to 5.3 nM; at ErbB2 WT, 7.3 nM; against EGFR, 68.3 nM; against EGFR wild type (EGFR WT), 35.6 nM.
Take `C=CC(=O)N1C[C@H]2CC[C@@H]1CN2c1ccc2ncnc(Nc3cc(C)c(Oc4cnc5c(c4)ncn5C)cc3F)c2n1` [Example 367]: the 50% inhibitory concentration (IC50) in assay [1] is 70.4 nM; against ErbB2 WT it was 2330 nM; against EGFR, no less than 10000 nM; at EGFR wild type (EGFR WT) it was no less than 5000 nM.
In the same order, the values of `C=CC(=O)N1CCCC(c2ccc3ncnc(Nc4cc(C)c(Oc5ccn6ncnc6c5)cc4F)c3n2)C1` (stereo not shown) [Example 370] are 47.3 nM, 56 nM, 1990 nM and 3170 nM.
For `C=CC(=O)N1C[C@H]2C[C@@H]1[C@H](c1ccc3ncnc(Nc4cc(C)c(Oc5ccn6ncnc6c5)cc4F)c3n1)C2` [Example 371], the IC50 in assay [1] was 82.4 nM; against ErbB2 WT it was 55 nM; against EGFR it was 3440 nM; at EGFR wild type (EGFR WT) it was no less than 5000 nM.
Take `C=CC(=O)N1C[C@H]2C[C@@H]1[C@H](c1ccc3ncnc(Nc4ccc(Oc5ccn6ncnc6c5)c(C)c4F)c3n1)C2` [Example 372]: the IC50 came to 52.7 nM in assay [1], 19 nM on ErbB2 WT, 1130 nM against EGFR and 4080 nM against EGFR wild type (EGFR WT).
As for `C=CC(=O)N1C[C@@H]2C[C@H]1C[C@H]2c1ccc2ncnc(Nc3cc(C)c(Oc4ccn5ncnc5c4)cc3F)c2n1` [Example 373], the IC50 was determined as 44 nM in assay [1], 55.5 nM against ErbB2 WT, 1580 nM at EGFR and 3360 nM against EGFR wild type (EGFR WT).
As to `C=CC(=O)N1CCCCC(c2ccc3ncnc(Nc4cc(C)c(Oc5ccn6ncnc6c5)cc4F)c3n2)C1` (stereo not shown) [Example 376], the IC50 in assay [1] turned out to be 36 nM; against ErbB2 WT it was 33.5 nM; on EGFR, 2110 nM; against EGFR wild type (EGFR WT), 4490 nM.
In the same order, the values of `C=CC(=O)N1CCCCC(c2ccc3ncnc(Nc4ccc(Oc5ccn6ncnc6c5)c(C)c4F)c3n2)C1` (stereo not shown) [Example 377] are 16.3 nM, 13 nM, 187 nM and 426 nM.
With `C=CC(=O)N1C[C@@H]2C[C@H]1CC[C@@H]2c1ccc2ncnc(Nc3cc(C)c(Oc4ccc5c(c4)ncn5C)cc3F)c2n1` [Example 378], the concentration for half-maximal inhibition (IC50) in assay [1] was 66.3 nM; against ErbB2 WT, 54 nM; at EGFR, 4560 nM; on EGFR wild type (EGFR WT), no less than 5000 nM.
As for `C=CC(=O)N1C[C@@H]2C[C@H]1CC[C@@H]2c1ccc2ncnc(Nc3ccc(Oc4ccc5c(c4)ncn5C)c(C)c3F)c2n1` [Example 379], the IC50 in assay [1] was 36.5 nM; on ErbB2 WT it was 29.2 nM; at EGFR it was 4210 nM; on EGFR wild type (EGFR WT), no less than 5000 nM.
In the same order, the values of `C=CC(=O)N1C[C@@H]2C[C@H]1CC[C@@H]2c1ccc2ncnc(Nc3cc(C)c(Oc4ccn5ncnc5c4)cc3F)c2n1` [Example 380] are 125 nM, 68.1 nM, 5680 nM and no less than 5000 nM.
As for `C=CC(=O)N1C[C@@H]2C[C@H]1CC[C@@H]2c1ccc2ncnc(Nc3ccc(Oc4ccn5ncnc5c4)c(C)c3F)c2n1` [Example 381], the IC50 was determined as 67.3 nM in assay [1], 28.9 nM against ErbB2 WT, 1720 nM at EGFR and 2640 nM at EGFR wild type (EGFR WT).
With `C=CC(=O)N1CC[C@H]2C[C@H](c3ccc4ncnc(Nc5ccc(Oc6ccn7ncnc7c6)c(C)c5F)c4n3)C[C@H]21` [Example 382], the IC50 in assay [1] is 21 nM; against ErbB2 WT, 15 nM; against EGFR, 584 nM; against EGFR wild type (EGFR WT), 339 nM.
For `C=CC(=O)N1C[C@@H]2C[C@H](c3ccc4ncnc(Nc5ccc(Oc6ccc7c(c6)ncn7C)c(C)c5F)c4n3)C[C@H]1C2` [Example 389], the IC50 in assay [1] was determined as 31.1 nM; against ErbB2 WT, 20.4 nM; on EGFR, 277 nM; on EGFR wild type (EGFR WT), 685 nM.
